Literature values in US20230134521A1, “COMPOUNDS FOR METHODS FOR PROMOTING FEMALE REPRODUCTIVE HEALTH THROUGH MEDIATION OF RENIN ANGIOTENSIN FUNCTION” (priority 2021, published 2023).
Ends that are not written are not given here.

Key:
[1] = system: female sexual health, performance or libido; details: doses administered to women
[2] = system: pre-menopausal women with SIAD related disorders (hypoactive sexual desire disorder)
[3] = system: rabbit clitoral cavernosal and vaginal smooth muscle strips; details: organ bath; for relaxation of clitoral and vaginal smooth muscle: female rabbit clitoral (cavernosal) and vaginal smooth muscle

Row | Molecule | improvement to sexual health, performance or libido in women [1] | relaxation of clitoral and vaginal smooth muscle [3] | other results
1 | CCCc1nc(C)c2c(=O)[nH]c(-c3cc(S(=O)(=O)N4CCN(CC)CC4)ccc3OCC)nn12 [Levitra] | without improvement |  | 
2 | O=c1[nH]c2ccccc2n1CCN1CCN(c2cccc(C(F)(F)F)c2)CC1 [Flibanserin, 2H-benzimidazol-2-one, 1,3-dihydro-1-[2-[4-[3(tri-fluoromethyl)phenyl]-1-piperazinyl]ethyl]] |  |  | share of women in whom the benefit was seen ([2]; 100 mg daily for a minimum of 28 days): 18%; therapeutic effect on Genitopelvic Pain/Penetration Disorder (vestibulodynia, dyspareunia) or Female Orgasmic Disorder ([2]; human, in vivo): no therapeutic effect at all; median placebo-corrected increase in satisfying sexual events (SSEs) ([2]; median baseline about 2-3 SSEs per month, over a six month period): 0.5-1.0 SSEs per month
3 | CCCc1nn(C)c2c(=O)[nH]c(-c3cc(S(=O)(=O)N4CCN(C)CC4)ccc3OCC)nc12 [sildenafil] |  | dose-dependent relaxation | 
4 | N=C(N)NCCC[C@H](N)C(=O)O [L-arginine] |  |  | relaxation of clitoral cavernosal smooth muscle strips in response to NO donors ([3]; rabbit clitoral cavernosal smooth muscle strips): enhanced relaxation
5 | vasoactive intestinal polypeptide (HSDAVFTDNYTRLRKQMAVKKYLNSILN; ends and bridges not checked; UniProt P01282 125-152, looked up) [VIP, nonadrenergic/noncholinergic neurotransmitter] |  | dose-dependent relaxation | 
6 | CCCc1nn(C)c2c(=O)[nH]c(-c3cc(S(=O)(=O)N4CCN(C)CC4)ccc3OCC)nc12 [Viagra] | without improvement |  | 
